Source: ChEMBL document CHEMBL5034009, “Second-Generation Dual FXR/sEH Modulators with Optimized Pharmacokinetics” (J Med Chem, 2021)
In brackets after ≈: the same amount, converted by molar mass. Activity calls are given as the source filed them. No cut-off for these calls is given here.

Tests used:
[1] = biological target: T1, Bile acid receptor (Homo sapiens, UniProt Q96RI1)
T1 sequence (Q96RI1 whole entry): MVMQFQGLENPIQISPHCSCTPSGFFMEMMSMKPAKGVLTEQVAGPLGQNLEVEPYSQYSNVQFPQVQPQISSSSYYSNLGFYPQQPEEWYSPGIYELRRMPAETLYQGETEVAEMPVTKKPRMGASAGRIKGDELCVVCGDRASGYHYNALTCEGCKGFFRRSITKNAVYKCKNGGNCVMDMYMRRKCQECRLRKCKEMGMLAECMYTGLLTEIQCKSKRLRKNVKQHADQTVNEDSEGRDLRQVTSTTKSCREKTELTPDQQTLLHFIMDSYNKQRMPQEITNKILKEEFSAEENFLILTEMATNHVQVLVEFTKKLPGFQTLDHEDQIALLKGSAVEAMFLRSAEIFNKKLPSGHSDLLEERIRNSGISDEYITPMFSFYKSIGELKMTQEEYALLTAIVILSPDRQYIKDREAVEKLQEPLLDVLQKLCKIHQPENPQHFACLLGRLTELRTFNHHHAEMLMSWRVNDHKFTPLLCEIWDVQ
Description: (§1) Agonist activity at recombinant human full-length FXR expressed in HeLa cells co-expressing human RXRalpha after 24 hrs by Dual-Glo luciferase assay

[2] = Metabolic stability in Sprague-Dawley rat liver microsomes assessed as intrinsic clearance at 10 uM preincubated with NADPH regenerating system for 5 mins followed by addition of microsome upto 60 mins by HPLC analysis; format: ADME; settings: read-out: CLH
[3] = Metabolic stability in Sprague-Dawley rat liver microsomes assessed as half life at 10 uM preincubated with NADPH regenerating system for 5 mins followed by addition of microsome upto 60 mins by HPLC analysis; format: ADME
[4] = biological target: T2, Bifunctional epoxide hydrolase 2 (Homo sapiens, UniProt P34913); test: Inhibition of recombinant human sEH using PHOME as substrate preincubated for 30 mins followed by substrate addition and measured after 30 mins by fluoresence-based assay
T2 sequence (P34913 whole entry): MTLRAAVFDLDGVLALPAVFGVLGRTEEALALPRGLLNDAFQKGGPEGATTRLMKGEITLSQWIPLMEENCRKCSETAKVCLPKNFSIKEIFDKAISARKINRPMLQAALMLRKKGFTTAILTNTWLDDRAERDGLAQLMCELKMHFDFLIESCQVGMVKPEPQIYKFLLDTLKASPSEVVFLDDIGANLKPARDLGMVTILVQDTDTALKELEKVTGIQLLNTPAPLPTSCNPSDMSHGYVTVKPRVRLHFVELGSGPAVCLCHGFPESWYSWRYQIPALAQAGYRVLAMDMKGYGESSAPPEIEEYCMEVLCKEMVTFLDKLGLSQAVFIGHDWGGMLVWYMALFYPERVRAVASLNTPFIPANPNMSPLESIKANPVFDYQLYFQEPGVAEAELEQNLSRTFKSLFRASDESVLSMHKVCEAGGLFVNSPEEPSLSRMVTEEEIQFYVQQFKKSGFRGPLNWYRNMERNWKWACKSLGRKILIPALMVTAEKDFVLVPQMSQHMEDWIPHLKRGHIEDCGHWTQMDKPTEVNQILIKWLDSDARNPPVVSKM

[5] = biological target: T3, Bile acid receptor (Homo sapiens) (UniProt Q96RI1); test: Agonist activity at recombinant human full-length FXR expressed in HeLa cells co-expressing human RXRalpha at 30 uM after 24 hrs by Dual-Glo luciferase assay; format: cell-based
T3 sequence (whole entry): T1 sequence (Q96RI1 whole entry)

[6] = Aqueous solubility of compound; format: physicochemical; settings: buffer
[7] = system: HepG2; test: Cytotoxicity against human HepG2 cells assessed as cell viability at 100 uM by WST-1 assay; format: cell-based; settings: hepg2, 100 µM
[8] = Half life in CD-1 mouse plasma at 10 mg/kg, po administered as single dose by LC-MS analysis; format: ADME, organism-based
[9] = Tmax in CD-1 mouse plasma at 10 mg/kg, po administered as single dose by LC-MS analysis; format: ADME, organism-based
[10] = Cmax in CD-1 mouse plasma at 10 mg/kg, po administered as single dose by LC-MS analysis; format: ADME, organism-based; design: route oral, dose 10 mg/kg
[11] = system: HepG2; test: Effect on FXR regulated gene expression in human HepG2 cells assessed as induction of PPARalpha expression at 1 uM after 8 hrs by qRT-PCR analysis
[12] = system: HepG2; test: Effect on FXR regulated gene expression in human HepG2 cells assessed as induction of SREBP1c expression at 1 uM after 8 hrs by qRT-PCR analysis
[13] = biological target: T1, Bile acid receptor; settings: hela
Description: as §1

Row | SMILES | EC50 [1] | microsomal CLint at 10 µM [2] | half-life at 10 µM [3] | IC50 [4] | other results
1 | CS(=O)(=O)Nc1ccc(CNC(=O)c2ccc(C3(O)COC3)cc2)c(Cl)c1 |  | 5.4 µL/min/mg | 4.23 h | 111 nM | Activity [5]: inactive
2 | CS(=O)(=O)Nc1ccc(CNC(=O)c2ccc(C3(C(F)(F)F)CC3)cc2)c(Cl)c1 |  | 7.5 µL/min/mg | 3.03 h | 4.3 nM | solubility [6]: 2.9 µg/mL (≈ 6.49 µM); Activity [7]: Non-Toxic
3 | CC(C)(C)c1ccc(C(=O)NCc2ccc(NS(C)(=O)=O)cc2F)cc1 |  | 47 µL/min/mg | 0.483 h | 16 nM | Activity [5]: inactive
4 | CC(C)Oc1ccc(C(=O)NCc2ccc(NS(C)(=O)=O)cc2Cl)cc1 | 400 nM | 12 µL/min/mg | 1.85 h | 12 nM | 
5 | CS(=O)(=O)Nc1ccc(CNC(=O)c2ccc(S(F)(F)(F)(F)F)cc2)c(Cl)c1 |  | 9.8 µL/min/mg | 2.3 h | 10 nM | Activity [5]: inactive
6 | CCS(=O)(=O)Nc1ccc(CNC(=O)c2ccc(C(C)(C)C)cc2)c(Cl)c1 | 500 nM | 28 µL/min/mg | 0.783 h | 6.1 nM | 
7 | CC(C)(C)c1ccc(C(=O)NCc2ccc(NS(=O)(=O)C(F)(F)F)cc2Cl)cc1 |  | 17 µL/min/mg | 1.3 h | 21 nM | Activity [5]: inactive
8 | CS(=O)(=O)Nc1ccc(CNC(=O)c2ccc(N3CCCCC3)cc2)c(Cl)c1 | 410 nM | 20 µL/min/mg | 1.12 h | 71 nM | 
9 | CC(C)(C)c1ccc(C(=O)NCc2ccc(NS(=O)(=O)C3CC3)cc2Cl)cc1 | 1500 nM | 41 µL/min/mg | 0.55 h | 7.8 nM | 
10 | CS(=O)(=O)Nc1ccc(CNC(=O)c2ccc(CC(F)(F)F)cc2)c(Cl)c1 | 4000 nM | 22 µL/min/mg | 1.03 h | 13 nM | 
11 | CS(=O)(=O)Nc1ccc(CNC(=O)c2ccc(C(F)(F)F)cc2)c(Cl)c1 |  | 9.6 µL/min/mg | 2.43 h | 7 nM | solubility [6]: 5.7 µg/mL (≈ 14 µM); half-life [8]: 5.2 h; Tmax [9]: 1 h; Cmax [10]: 4930 ng/mL; Activity [7]: Non-Toxic
12 | CS(=O)(=O)Nc1ccc(CNC(=O)c2ccc(N3CCOCC3)cc2)c(Cl)c1 | 4400 nM | 4.1 µL/min/mg | 5.72 h | 175 nM | 
13 | COc1ccc(C(=O)NCc2ccc(NS(C)(=O)=O)cc2Cl)cc1 |  | 5 µL/min/mg | 4.5 h | 38 nM | Activity [5]: inactive
14 | CS(=O)(=O)Nc1ccc(CNC(=O)c2ccc(N3CCC3)cc2)c(Cl)c1 | 13000 nM | 8.6 µL/min/mg | 2.62 h | 94 nM | 
15 | CC(C)S(=O)(=O)Nc1ccc(CNC(=O)c2ccc(C(C)(C)C)cc2)c(Cl)c1 |  | 23 µL/min/mg | 0.983 h | 11.2 nM | 
16 | CC(C)(O)c1ccc(C(=O)NCc2ccc(NS(C)(=O)=O)cc2Cl)cc1 | 32 nM | 1.5 µL/min/mg | 20.2 h | 170 nM | solubility [6]: 48 µg/mL (≈ 121 µM); Activity [11]: inactive; Activity [12]: inactive; Activity [7]: Non-Toxic
17 | CC(C)(C)c1ccc(C(=O)NCc2ccc(NS(C)(=O)=O)cc2Cl)cc1 |  | 21 µL/min/mg | 1.08 h |  | 
18 | CS(=O)(=O)Nc1ccc(CNC(=O)c2ccc(C3(O)CC3)cc2)c(Cl)c1 |  |  |  |  | EC50 [13]: Nd(Unstable)
19 | CC(F)(F)c1ccc(C(=O)NCc2ccc(NS(C)(=O)=O)cc2Cl)cc1 | 1200 nM | 9.6 µL/min/mg | 2.35 h | 2 nM | 
20 | CCOc1ccc(C(=O)NCc2ccc(NS(C)(=O)=O)cc2Cl)cc1 | 2200 nM | 12 µL/min/mg | 1.8 h | 31 nM | 

Now from value to compound, other results behind:

Row | EC50 [1] | microsomal CLint at 10 µM [2] | half-life at 10 µM [3] | IC50 [4] | SMILES | other results
21 | 3220 nM | 14 µL/min/mg | 1.6 h | 4 nM | CS(=O)(=O)Nc1ccc(CNC(=O)c2ccc(C(F)(F)C(F)(F)F)cc2)c(Cl)c1 | 
22 |  | 24 µL/min/mg | 0.917 h | 9 nM | COC(C)(C)c1ccc(C(=O)NCc2ccc(NS(C)(=O)=O)cc2Cl)cc1 | Activity [5]: inactive
23 |  | 16 µL/min/mg | 1.37 h | 268 nM | CC(C)(C)c1ccc(C(=O)NCc2c(Cl)cc(NS(C)(=O)=O)cc2Cl)cc1 | Activity [5]: inactive
24 | 40 nM |  |  |  | CC(C)(C)c1ccc(C(=O)NCc2ccc(N)cc2Cl)cc1 | 
25 | 560 nM | 17 µL/min/mg | 1.35 h | 49 nM | CS(=O)(=O)Nc1ccc(CNC(=O)c2ccc(C34CC(C3)C4)cc2)c(Cl)c1 | 
26 |  | 9.3 µL/min/mg | 2.42 h | 85 nM | CC(C)(C)c1ccc(C(=O)NCc2c(F)cc(NS(C)(=O)=O)cc2F)cc1 | Activity [5]: inactive
27 |  | 17 µL/min/mg | 1.28 h |  | CS(=O)(=O)Nc1ccc(CNC(=O)c2ccc(N3CCCC3)cc2)c(Cl)c1 | 
28 |  | 25 µL/min/mg | 0.883 h |  | CN(C)c1ccc(C(=O)NCc2ccc(NS(C)(=O)=O)cc2Cl)cc1 | 
29 | 1090 nM | 9.1 µL/min/mg | 2.47 h | 22 nM | CS(=O)(=O)Nc1ccc(CNC(=O)c2ccc(OC(F)(F)F)cc2)c(Cl)c1 | 
